Test results: paper PMC12040169 (PLOS Biology, 2025)

Assay: in vitro
Conditions: human, hela cells, % viability

SMILES	viability at 28.5 h, 10 µM	viability at 28.5 h, 10 µM (bulk resorufin, single well)
COc1ccc(C2CC(c3cccc(Br)c3)Nc3ncnn32)cc1OC (centres unmarked) [CBK294474]	82.7%	–
Sc1nnc(-c2ccncc2)n1/N=C/c1c[nH]c2ccccc12 [CBK265272]	85.8%	–
N#Cc1ccsc1NC(=O)CSc1nnc[nH]1 [CBK267221]	87.7%	–
COc1ccc(Br)cc1/C=N/NC(=O)C1CC(c2ccccc2)(c2ccccc2)C1 [CBK263218]	88.8%	–
Clc1ccc(SCCN2CCOCC2)cc1 [CBK265055G]	98.8%	–
Cc1cccc(N(CC(=O)NCc2ccco2)S(=O)(=O)c2ccccc2)c1 [CBK263571]	87.7%	–
O=C1CSC(Nc2nc(-c3ccccc3)cs2)=N1 [CBK026880]	104%	–
CC(Cc1c[nH]c2ccccc12)NC(=N)NC(=N)N (centres unmarked) [CBK268251C]	91.7%	–
O=C1c2ccccc2CN1c1cccc(Cl)c1Cl [CBK109916]	82.3%	–
CC(C)c1nsc(NCCc2nnc3n2CCCC3)n1 [CBK306425]	92.4%	–
CC(CCN(C)CCN(C)C)c1ccccc1 (centres unmarked) [CBK261871]	87.6%	–
CCCCCC1/C(=N\O)CCC1CC(=O)OC (centres unmarked) [CBK019978]	93.9%	–
CCCNS(=O)(=O)c1cc2c3c(c1)c(C)cc(=O)n3CCC2 [CBK307547]	97.1%	–
CC1CCCCN1C(=O)CCn1c(C(F)F)cc2cccnc21 (centres unmarked) [CBK285024]	89.5%	–
O=C(O)c1ccccc1-c1ccccc1C(=O)NCCCO [CBK267197]	92.3%	–
O=C(c1cncnc1)N1CCC2(CCN(Cc3ccccc3)CC2)C1 [CBK136782]	101%	–
COc1ccc(-c2cnc3[nH]c(=O)n([C@H](C)c4ccccc4)c3n2)c(OC)c1OC [CBK064236]	94.7%	–
COc1ccc([C@@]23CC[C@@H](NC(=O)Nc4ccc(-c5csnn5)cc4)C[C@@H]2N(C)CC3)cc1OC [CBK051163T]	95.3%	–
Cc1ccc(-n2ncc(C(=O)N3CCc4ccccc4C3)c2NC(=O)c2ccco2)cc1C [CBK267207]	100%	–
O=C1Nc2ccccc2Oc2ccc(S(=O)(=O)N3CCOCC3)cc21 [CBK269807]	75.5%	–
CCN1CCCC1Cn1c(=S)[nH]c2ccccc2c1=O (centres unmarked) [CBK267849]	92.8%	–
c1cc2c(cc1CCNCc1ccc3c(c1)OCO3)OCO2 [CBK074501G]	–	98.9%
OCCN1CC2(CCN(CCC(c3ccccc3)c3ccccc3)CC2)c2ccccc21 [CBK126765]	88.9%	–

SMILES	viability at 28.5 h, 10 µM	viability at 28.5 h, 10 µM (bulk resorufin, single well)
Cn1ncc(Nc2ccccc2)c1C(=O)O [CBK013004]	114%	–
CC(=O)NCCn1cc2c(n1)[C@H]1CN(C(=O)CC(C)(C)C)C[C@H]1CC2 [CBK284592]	93.8%	–
C=Cn1ncc(CN(CCN(C)C)Cc2ccc(C)o2)c1C [CBK283236]	110%	–
COc1ccc(/C=C(/NC(=O)c2cccc(Cl)c2)C(=O)Nc2ccccc2)cc1 [CBK263342]	107%	–
c1ccc(C2=NN=C(N3CCOCC3)SC2)cc1 [CBK006876G]	97.3%	–
CC(=O)N1CCc2cc(C(O)CN3CCN(c4nsc5ccccc45)CC3)ccc21 (centres unmarked) [CBK283092]	93.3%	–
Cc1c(Cc2ccccc2)c(N2CCN(C3c4ccccc4-c4ccccc43)CC2)n2c(nc3ccccc32)c1C#N [CBK263124]	111%	–
CCC1CCCCN1C(=O)c1ccc(-c2ccccc2)s1 (centres unmarked) [CBK074215]	96.5%	–
CCc1cc(CNC(=O)C2CN(Cc3ccc(Cl)cc3)C2)on1 [CBK281564]	97.8%	–
Cc1ccc(C2(C(=O)N3CCC(O)(c4ccccn4)CC3)CC2)cc1 [CBK283754]	96.4%	–
Cc1nc(N2CCN(Cc3ccc4c(c3)OCO4)CC2)c2c(C)c(C)sc2n1 [CBK266739]	100%	–
Clc1cc2nc(SCCc3cnccn3)c(N3CCCC3)nc2cc1Cl [CBK103700]	93.1%	–
COC(=O)c1ccsc1NC(=O)c1cc(-c2ccc(C)o2)nc2ccc(Br)cc12 [CBK267752]	86.7%	–
CN1CCCN(C(=O)c2ccc(-c3nc(-c4ccc(C#N)cc4)cnc3N)cc2)CC1 [CBK107140]	93.9%	–
CCOc1ccc(-c2ccnc(NCC(C)(C)CO)n2)cc1C(=O)O [CBK307530]	88.6%	–
O=C1CC(N2CCN(CCc3ccncc3)CC2)C(=O)N1c1ccc(Cl)cc1 (centres unmarked) [CBK270078]	85.6%	–
O=[N+]([O-])c1ccc(N2CCN(S(=O)(=O)c3ccccc3)CC2)cc1Sc1cccc2cccnc12 [CBK263821]	100%	–
COc1ccc(CCC(=O)N2CCCC2c2ccc(Cc3ccccc3F)cn2)cc1 (centres unmarked) [CBK285992]	94.2%	–
Cc1nc(C2CCCN(C(=O)c3cnn(C)c3)C2)c2sccn12 (centres unmarked) [CBK285236]	81.4%	–
Cc1cc(-c2nccnc2NCCCN2CCOCC2)cc(C)c1O [CBK036598]	92%	–
Cc1cc(Cl)ccc1OCCCc1nnc(S)n1C [CBK288396]	85.1%	–
CCC(CC)C(=O)N1CCN(Cc2ccccc2)CCC1=O [CBK284830]	87.9%	–
Cc1nc(C2CCN(Cc3cccc(F)c3)CC2)ncc1C(=O)Nc1ccc(F)cc1 [CBK285668]	107%	–

SMILES	viability at 28.5 h, 10 µM	viability at 28.5 h, 10 µM (bulk resorufin, single well)
Cc1cccc(-c2nc(C3CCCNC3)n3ccccc23)c1 (centres unmarked) [CBK035528]	92.3%	–
COc1ccc([N+](=O)[O-])cc1NC(=O)c1nc(C)c(C)nc1C(=O)O [CBK103387]	82.6%	–
CC(C)c1ccc(S(=O)(=O)NCc2csc3ccccc23)cc1 [CBK044662]	96.6%	–
C[C@H]1CN2C[C@H](O)CC2CN1Cc1cccc2ccccc12 (some centres unmarked) [CBK284717]	92.5%	–
O=C(O)c1ccc(C(=O)c2c3c(=O)n(-c4ccccc4C(=O)O)c(=O)c3cc3c(=O)n(-c4ccccc4C(=O)O)c(=O)c23)cc1 [CBK261183]	91.7%	–
CCc1c(Cc2[nH]c(C)c(C(C)=O)c2C)[nH]c(C(=O)O)c1C [CBK286717]	91.3%	–
N#Cc1c(NC(=O)CSc2nnc(N)s2)sc2c1CCCC2 [CBK266649]	99.8%	–
Cc1nccn1CC1(O)CCN(CC(C)c2ccccc2)CC1 (centres unmarked) [CBK284954]	107%	–
COCC(C)NC(=O)Cn1c(-c2cccs2)cc2cccnc21 (centres unmarked) [CBK282557]	81.8%	–
COCC(=O)NC1CCN(CC2(c3ccccc3F)CCCC2)CC1 [CBK284850]	114%	–
COc1ccc(CNC(=O)c2cnc(-c3ccc(F)cc3)c(-c3ccc(C(C)=O)s3)c2)cc1 [CBK036577]	90.7%	–
O=C1NC(=S)NC(=O)C1=Cc1ccc(OCc2ccccc2)c(C(=O)O)c1 [CBK264159]	–	117%
CC(C)(C)OC(=O)COc1cc2oc(=O)cc(-c3ccccc3)c2cc1Cl [CBK263729]	87.6%	–
C=CCNC(=O)N1CCC2(CC1)OCCc1c2n(C)c2ccccc12 [CBK047354]	84.8%	–
CN(C)CCCNC=C1C(=O)CC(C)(C)CC1=O [CBK262043]	92.2%	–
CN(C)CCN(C)C(=O)c1ccc(-c2ccco2)nc1N(C)C [CBK106078]	84.1%	–
COc1ccc(CCNC(=O)c2cnoc2-c2ccc(C)cc2)cc1 [CBK153731]	119%	–
CCNC(=O)C1(Cc2ccc(-c3cccs3)cc2)CCN(C(=O)c2ccccc2)CC1 [CBK285794]	94.5%	–
CC(C)c1cc(C(=O)NC(C)(C)CN2CCCCC2C)n(C)n1 (centres unmarked) [CBK282644]	96.4%	–
Cc1noc(C)c1C(=O)N1CCC2(CC1)CC(=O)c1cc(Br)ccc1O2 [CBK156508]	90%	–
CCOc1ccc(S(=O)(=O)NCCCN2CCOCC2)c2ccccc12 [CBK018421]	89.8%	–
CCN(CC)CCOC(=O)c1ccc(N)cc1 [CBK004330C]	84.5%	–
CC(C)NC(=O)CCn1c(-c2ccncc2)cc2cccnc21 [CBK284931]	111%	–

SMILES	viability at 28.5 h, 10 µM	viability at 28.5 h, 10 µM (bulk resorufin, single well)
CCOc1ccccc1NC(=O)CN(C)S(=O)(=O)c1ccc2ccccc2c1 [CBK266874]	101%	–
CCc1c(C)nc2c(N3CCOC3=O)cccc2c1SCCC(=O)O [CBK159595T]	91.7%	–
Cc1cc(C)cc(NC(=O)C(Cc2ccccc2)C(=O)Nc2cc(C)cc(C)c2)c1 [CBK266165]	106%	–
Cc1nc(C)n(CC2CCCN2Cc2cn3ccccc3c2C#N)n1 (centres unmarked) [CBK304006]	91%	–
CCC(=O)OC1(C(=O)c2ccc(F)cc2)CCN(CCCC(c2ccc(F)cc2)c2ccc(F)cc2)CC1 [CBK025227C]	84.3%	–
Cc1ccccc1NC(=O)Cc1nnc(SCC(=O)c2ccccc2)n1C [CBK269719]	101%	–
O=C(Cn1cnc2c(oc3ccccc32)c1=O)Nc1ccc2c(c1)OCO2 [CBK287557]	118%	–
CN1CCCC(OC(=O)C2CCCCC2)C1 (centres unmarked) [CBK090234]	104%	–
COCCc1noc(CC2CCN(c3ncc(C#N)cc3F)CC2)n1 [CBK304153]	115%	–
Cc1nc(S(=O)(=O)N2CCC(OCC3CC3)C2)cn1C (centres unmarked) [CBK304668]	102%	–
O=C(Nc1ccc(SC(F)F)cc1)c1cc(-c2ccncc2)nc2ccccc12 [CBK296092]	85.8%	–
CCCC(=O)N1CCC(c2cc3n(n2)[C@@H](C(F)(F)F)C[C@@H](C)N3)C1 (some centres unmarked) [CBK282237]	99.2%	–
O=C(NCCN1CCOCC1)c1cnn2c(-c3ccccc3)cc(-c3ccccc3)nc12 [CBK263062]	94.5%	–
COc1ccc2c(CN(C)Cc3cc(C)[nH]n3)cn(C)c2c1 [CBK281734]	103%	–
CCOc1cc(C(O)c2nnc(-c3ccccc3)o2)ccc1OCC(C)C (centres unmarked) [CBK132385]	89.1%	–
CCC1CCCCN1C(=O)Cc1c(C)nc(-c2cccnc2)[nH]c1=O (centres unmarked) [CBK306240]	91.6%	–
COc1ccc(C(C)C)cc1-c1cn2ccnc2c(N(C)CCN(C)C)n1 [CBK066368]	94.8%	–
COc1ccc(S(=O)(=O)N(CC(=O)Nc2cccnc2)c2ccc(F)cc2)cc1 [CBK268445]	86.5%	–
CNC(c1ccncc1)C(NC)c1ccncc1 (centres unmarked) [CBK015546]	95.9%	–
COc1ccccc1N1CCN(C(=O)NCCC(C)C)CC1 [CBK155611]	94.5%	–
